The results in this text go back to patent US4521537A, “Spiro[2H-1,4-benzodioxepin-3(5H)4'-piperidine and -3'-pyrrolidine] compounds and their use as antihypertensive agents” (Hoechst-Roussel Pharmaceuticals Incorporated, priority 1984, dated 1985).

Where a name gives a salt, the structure may show the parent alone. Read-outs that look alike come from different tables or passages of the source.

For assay [1], the system named is spontaneous hypertensive rat. Put plainly: antihypertensive activity, spontaneous hypertensive rat (SHR) test, indirect tail cuff method. Type of assay: in vivo. How it is done:
Compounds of this invention are useful as antihypertensive agents due to their ability to depress blood pressure in mammals. Antihypertensive activity is measured in the spontaneous hypertensive rat by the indirect tail cuff method described by A. Schwartz, Ed., Methods in Pharmacology, Vol. page 135, Appleton Century Crafts, New York (1971). […] The drop in blood pressure is measured on the third day following administration. The antihypertensive activity is expressed as mm Hg decrease in mean arterial blood pressure.

Another assay relates to mice. Put plainly: phenylquinone-induced writhing test in mice (PQW), analgesia. Type of assay: in vivo, male, CD-1 mice. Conditions: Mus musculus; for change in vivo at 20 mg/kg / change in vivo at 10 mg/kg / change in vivo at 5 mg/kg: read-out: PQW % (percent inhibition of writhing); for change in vivo at 5 mg/kg: 5 mg/kg SC; for ED50: read-out: ED50 (PQW). The procedure: Compounds of this invention produce analgesia when administered to mammals. A phenylquinone-induced writhing test in mice (PQW) was used as an assay to detect analgesia. The procedure employed was a modification of Siegmund, E., Cadmus, R. and Lu, G: Proc. Soc. Exptl. Bio. Med., 95: 729 (1957). 12.5 mg of phenyl-p-benzoquinone were dissolved in 5 ml of 95% ethanol and q.s. to 100 ml with distilled water and administered to mice (10 ml/kg, i.p.). This produces a characteristic "writhe" which is defined as an inward rotation of one or more feet with twisting and turning of the trunk, drawing in of the abdominal wall, lordosis and arching of the back.
A total of 28 male, CD-1 mice (18 to 30 grams) were employed for a time response. Animals recived food and water ad libitum. Drugs to be tested were prepared with distilled water and, if insoluble, one drop of a suitable surfactant was added.
Twenty animals (5/group) were administered the drug 15, 30, 45 and 60 minutes prior to phenylquinone injections. Control animals (2/group) received an equal amount of vehicle. After the administration of phenylquinone the mice were placed separately into one-liter beakers and 5 minutes were allowed to lapse. The mice were then observed for a period of 10 minutes and the number of writhes were recorded for each animal. The formula for computing percent inhibition is: [formula]
The time period with the greatest percent of inhibition is considered the peak time.
A dose range is run in the same fashion as a time response except 10 animals per group were tested at the peak time of drug activity. Fifty animals, 4 drug groups, and a vehicle control were employed. Animals were dosed and tested in a randomized manner. An estimated ED50 was calculated by a computer linear regression analysis.
On the technique in general: In writhing tests, fewer writhes than in controls are read as antinociception.

Where [2] appears, read: Table III, SC, printed in PQW % column.

On to `CC1Oc2ccc(F)cc2COC12CCN(CCCC(c1cccc(F)c1)c1cccc(F)c1)CC2` (centres unmarked) [Example 76, 1'-[4,4-Bis(3-fluorophenyl)butyl]-7-fluoro-2-methylspiro[2H-1,4-benzodioxepin-3(5H)4'-piperidine]hydrochloride], for which, in assay [1] (Table III, 0.3 mg/kg PO), the “SHR mm Hg (decrease in mean arterial blood pressure)” value is listed as -31 mm Hg. Also, in the assay with mice (Table III, 20 mg/kg SC), the change in vivo at 20 mg/kg was -38%.
Consider `CC1Oc2cc(Cl)ccc2COC12CCNCC2` (centres unmarked) [Example 65, 8-Chloro-2-methylspiro[2H-1,4-benzodioxepin-3(5H)4'-piperidine]oxalate], for which the change in vivo at 10 mg/kg in the assay with mice (sc) was -98%.
Take `CC1Oc2ccccc2COC12CCN(CCc1ccccc1)CC2` (centres unmarked) [Example 46, 2-Methyl-1'-(2-phenylethyl)-spiro[2H-1,4-benzodioxepin-3(5H)4'-piperidine]hydrochloride]: in assay [1] (Table II, 50 mg/kg PO), the “SHR mm Hg (decrease in mean arterial blood pressure)” value is recorded as -12 mm Hg. In the assay on mice (Table II), the change in vivo at 5 mg/kg is -87%.
As for `CC1Oc2ccccc2COC12CCN(CCN)CC2` (centres unmarked) [Example 49, 1'-(2-Aminoethyl)-2-methylspiro[2H-1,4-benzodioxepin-3(5H)4'-piperidine]dioxalate], the “SHR mm Hg (decrease in mean arterial blood pressure)” value in assay [1] (Table II, 50 mg/kg PO) is given as -23 mm Hg. In the assay with mice (Table II, 20 mg/kg SC), the change in vivo at 20 mg/kg is -85%. Also, the ED50 in the assay on mice (Table II, SC, computer linear regression, peak time) was 4.7 mg/kg.
For the compound `CC1Oc2ccccc2COC12CCN(CCCc1noc3cc(F)ccc13)CC2` (centres unmarked) [Example 52, 1'-[3-(6-Fluoro-1,2-benzisoxazol-3-yl)propyl]-2-methylspiro[2H-1,4-benzodioxepin-3(5H)4'-piperidine]maleate], the “SHR mm Hg (decrease in mean arterial blood pressure)” value in assay [1] (Table II, 50 mg/kg PO) is recorded as -67 mm Hg. Besides, the change in vivo at 5 mg/kg in the assay with mice (Table II) was -82%.
As to `CC1Oc2ccccc2COC12CCN(CCCN)CC2` (centres unmarked) [Example 55, 2-Methyl-1'-(3-aminopropyl)spiro[2H-1,4-benzodioxepin-3(5H)4'-piperidine]dioxalate], the “SHR mm Hg (decrease in mean arterial blood pressure)” value in assay [1] (Table II, 50 mg/kg PO) is -28 mm Hg. Moreover, the change in vivo at 20 mg/kg with mice (Table II, 20 mg/kg SC) is -28%.
Take `CC1Oc2ccc(F)cc2COC12CCN(CCCCc1ccc(F)cc1)CC2` (centres unmarked) [Example 77, 1'-[4-(4-Fluorophenyl)butyl]-7-fluoro-2-methylspiro[2H-1,4-benzodioxepin-3(5H)4'-piperidine]hydrochloride]: in assay [1] (Table III, 50 mg/kg PO), the “SHR mm Hg (decrease in mean arterial blood pressure)” value was -40 mm Hg. In addition, the change in vivo at 5 mg/kg in the assay with mice (Table III) is -66%. For the same compound, the ED50 with mice (setting [2]) came out at 4.3 mg/kg.
Consider `CC1Oc2ccc(Cl)cc2COC12CCN(CC(O)COc1ccc(F)cc1)CC2` (centres unmarked) [Example 93, 7-Chloro-2-methyl-1'-[2-hydroxy-3-(4-fluorophenoxy)propyl]spiro[2H-1,4-benzodioxepin-3(5H)4'-piperidine]hydrochloride], for which the “SHR mm Hg (decrease in mean arterial blood pressure)” value in assay [1] (Table III, 50 mg/kg PO) is on record as -24 mm Hg. Further, the change in vivo at 20 mg/kg in the assay on mice (Table III, 20 mg/kg SC) is -88%.
For `CC1Oc2ccccc2COC12CCN(CC1CC1)CC2` (centres unmarked) [Example 51, 1'-Cyclopropylmethyl-2-methylspiro[2H-1,4-benzodioxepin-3(5H)4'-piperidine]oxalate], in the assay with mice (Table II, 10 mg/kg SC), the change in vivo at 10 mg/kg is -61%.
For the compound `COc1ccc(OCC(O)CN2CCC3(CC2)OCc2ccccc2OC3C)cc1` (centres unmarked) [Example 89, 2-Methyl-1'-[2-hydroxy-3-(4-methoxyphenoxy)propyl]-spiro[2H-1,4-benzodioxepin-3(5H)4'-piperidine]hydrochloride], the “SHR mm Hg (decrease in mean arterial blood pressure)” value in assay [1] (Table III, 50 mg/kg PO) is -40 mm Hg. Further, the change in vivo at 20 mg/kg in the assay with mice (Table III, 20 mg/kg SC) is -57%.
As for `CC1Oc2ccccc2COC12CCN(CCc1ccc(N)cc1)CC2` (centres unmarked) [Example 57, 1'-[2-(4-Aminophenyl)ethyl]-2-methylspiro[2H-1,4-benzodioxepin-3(5H)4'-piperidine]maleate hydrate], in assay [1] (Table II, 50 mg/kg PO), the “SHR mm Hg (decrease in mean arterial blood pressure)” value is -12 mm Hg. Moreover, the change in vivo at 20 mg/kg in the assay on mice (Table II, 20 mg/kg SC) is -99%.
As for `CC1Oc2ccccc2COC12CCN(CCCCC(c1ccc(F)cc1)c1ccc(F)cc1)CC2` (centres unmarked) [Example 84, 2-Methyl-1'-[5,5-bis(4-fluorophenyl)pentyl]spiro[2H-1,4-benzodioxepin-3(5H)4'-piperidine]hydrochloride], the change in vivo at 20 mg/kg in the assay on mice (Table III, 20 mg/kg SC) was -34%.
On the same count and under the same terms, next, `CC1Oc2c(Cl)cccc2COC12CCN(CCCC(c1ccccc1)c1ccccc1)CC2` (centres unmarked) [Example 74, 1'-(4,4-Diphenylbutyl)-9-chloro-2-methylspiro[2H-1,4-benzodioxepin-3(5H)4'-piperidine]hydrochloride]: -25%.
With `CC1Oc2ccc(Cl)cc2COC12CCN(CC(O)COc1ccccc1)CC2` (centres unmarked) [Example 91, 7-Chloro-2-methyl-1'-(2-hydroxy-3-phenoxypropyl)spiro[2H-1,4-benzodioxepin-3(5H)4'-piperidine]hydrochloride], the “SHR mm Hg (decrease in mean arterial blood pressure)” value in assay [1] (Table III, 50 mg/kg PO) is reported as -29 mm Hg. For the same compound, the change in vivo at 20 mg/kg in the assay on mice (Table III, 20 mg/kg SC) was -67%.
`CC1Oc2ccc(Cl)cc2COC12CCN(CCCCc1ccc(F)cc1)CC2` (centres unmarked) [Example 78, 1'-[4-(4-Fluorophenyl)butyl]-7-chloro-2-methylspiro[2H-1,4-benzodioxepin-3(5H)4'-piperidine]hydrochloride]: the “SHR mm Hg (decrease in mean arterial blood pressure)” value in assay [1] (Table III, 50 mg/kg PO) was -61 mm Hg. Further, in the assay with mice (Table III, 20 mg/kg SC), the change in vivo at 20 mg/kg is -68%. The ED50 with mice (setting [2]) was found to be 6.8 mg/kg.
As to `CC(=O)N1CCC2(CC1)OCc1cc([N+](=O)[O-])ccc1OC2C` (centres unmarked) [Example 80, 1'-Acetyl-2-methyl-7-nitrospiro[2H-1,4-benzodioxepin-3(5H)4'-piperidine]], in assay [1] (Table III, 50 mg/kg PO), the “SHR mm Hg (decrease in mean arterial blood pressure)” value was -19 mm Hg. Also, in the assay with mice (Table III, 20 mg/kg SC), the change in vivo at 20 mg/kg is -22%.
Consider `CC1Oc2ccccc2COC12CCN(CC#N)CC2` (centres unmarked) [Example 45, 1'-(Cyanomethyl)-2-methylspiro[2H-1,4-benzodioxepin-3(5H)-4'-piperidine]], for which the “SHR mm Hg (decrease in mean arterial blood pressure)” value in assay [1] (Table II, 50 mg/kg PO) is recorded as -29 mm Hg. The change in vivo at 20 mg/kg in the assay on mice (Table II, 20 mg/kg SC) was -15%.
For `Cc1[nH]c2ccccc2c1CCCN1CCC2(CC1)OCc1ccccc1OC2C` (centres unmarked) [Example 53, 2-Methyl-1'-[3-(2-methylindol-3-yl)propyl]spiro[2H-1,4-benzodioxepin-3(5H)4'-piperidine]fumarate], in that order: -32 mm Hg and -30%.
For `CC1Oc2ccccc2COC12CCN(CCN1CCOCC1)CC2` (centres unmarked) [Example 59, 1'-[2-(1-Morpholino)ethyl]-2-methylspiro[2H-1,4-benzodioxepin-3(5H)4'-piperidine]dihydrochloride], in that order: -18 mm Hg and -52%.
As to `CC1Oc2cc(Cl)ccc2COC12CCN(CC#N)CC2` (centres unmarked) [Example 66, 8-Chloro-1'-cyanomethyl-2-methylspiro[2H-1,4-benzodioxepin-3(5H)4'-piperidine]], in the assay on mice (Table II, 20 mg/kg SC), the change in vivo at 20 mg/kg is -9%.
Turning to `CCOC(=N)N1CCC2(CC1)OCc1ccccc1OC2C` (centres unmarked) [Example 72, 2-Methylspiro[2H-1,4-benzodioxepin-3(5H)4'-piperidine]-1'-carboximidic acid, ethyl ester hydrochloride], in assay [1] (Table III, 50 mg/kg PO), the “SHR mm Hg (decrease in mean arterial blood pressure)” value is given as -20 mm Hg. Also, in the assay on mice (Table III, 20 mg/kg SC), the change in vivo at 20 mg/kg is -51%.
Consider `COC(=N)N1CCC2(CC1)OCc1ccccc1OC2C` (centres unmarked) [Example 69, 2-Methylspiro[2H-1,4-benzodioxepin-3(5H)4'-piperidine]-1'-carboximidic acid, methyl ester hydrochloride], for which the change in vivo at 20 mg/kg with mice (Table III, 20 mg/kg SC) was -74%.
`COc1ccc2c(c1)c(CC(=O)O)c(C)n2C(=O)c1ccc(Cl)cc1` [Indomethacin, reference compound]: the ED50 with mice (po) amounted to 0.7 mg/kg.
On to `CC1Oc2ccccc2COC12CCN(CCC(C#N)(c1ccccc1)c1ccccc1)CC2` (centres unmarked) [Example 61, 2-Methyl-1'-[3-cyano-3,3-diphenylpropyl]spiro[2H-1,4-benzodioxepin-3(5H)4'-piperidine]hydrochloride], for which the change in vivo at 20 mg/kg in the assay with mice (sc) was -25%.
As to `CCCCCN1CCC2(CC1)OCc1ccccc1OC2C` (centres unmarked) [Example 54, 2-Methyl-1'-pentylspiro[2H-1,4-benzodioxepin-3(5H)4'-piperidine]oxalate], the change in vivo at 20 mg/kg in the assay with mice (Table II, 20 mg/kg SC) was -36%.

A word on the ED50: it is the dose at which the effect has come halfway, by size or by number of responders.
